In ChEMBL document CHEMBL6127080, “Design, synthesis and biological evaluation of novel diphenylamine analogues as NLRP3 inflammasome inhibitors” (Bioorg Med Chem, 2024):

How the values were obtained:
[1] = Cytotoxicity against mouse J774.A1 cells; format: toxicity, cell-based
[2] = Stability in rat liver homogenate incubated measured upto 48 hrs by HPLC method; format: ADME, tissue-based; conditions: tissue homogenate
[3] = molecular target: NACHT, LRR and PYD domains-containing protein 3 (Mus musculus, UniProt Q8R4B8); assay: Inhibition of NLRP3 inflammasome activation in mouse […] cells assessed as reduction in LPS/ATP-induced IL-1 beta release pretreated with LPS for 4.5 hrs followed by compound addition for 30 mins prior to ATP addition and measured after 30 mins by ELISA; format: cell-based, J774.A1
[4] = Stability in rat plasma incubated measured upto 48 hrs by HPLC method; format: ADME, cell-free
[5] = molecular target: NACHT, LRR and PYD domains-containing protein 3 (Mus musculus) (UniProt Q8R4B8); assay: Inhibition of NLRP3 inflammasome activation in mouse […] cells assessed as reduction in LPS/ATP-induced IL-1 beta release at 1 uM pretreated with LPS for 4.5 hrs followed by compound addition for 30 mins prior to ATP addition and measured after 30 mins by ELISA relative to control; format: cell-based; conditions: J774.A1, time 5.5 hrs
[6] = molecular target: NACHT, LRR and PYD domains-containing protein 3 (Mus musculus) (UniProt Q8R4B8); assay: Inhibition of NLRP3 inflammasome activation in mouse […] cells assessed as reduction in LPS/ATP-induced IL-1 beta release at 10 uM pretreated with LPS for 4.5 hrs followed by compound addition for 30 mins prior to ATP addition and measured after 30 mins by ELISA relative to control; format: cell-based; conditions: J774.A1, time 5.5 hrs
J774.A1 = assay: Cytotoxicity against mouse J774.A1 cells at 50 uM; format: toxicity, cell-based; conditions: j774.a1, 5.5 h

Chain of NACHT, LRR and PYD domains-containing protein 3 (Mus musculus) (Q8R4B8 whole entry, the tested form may be a part): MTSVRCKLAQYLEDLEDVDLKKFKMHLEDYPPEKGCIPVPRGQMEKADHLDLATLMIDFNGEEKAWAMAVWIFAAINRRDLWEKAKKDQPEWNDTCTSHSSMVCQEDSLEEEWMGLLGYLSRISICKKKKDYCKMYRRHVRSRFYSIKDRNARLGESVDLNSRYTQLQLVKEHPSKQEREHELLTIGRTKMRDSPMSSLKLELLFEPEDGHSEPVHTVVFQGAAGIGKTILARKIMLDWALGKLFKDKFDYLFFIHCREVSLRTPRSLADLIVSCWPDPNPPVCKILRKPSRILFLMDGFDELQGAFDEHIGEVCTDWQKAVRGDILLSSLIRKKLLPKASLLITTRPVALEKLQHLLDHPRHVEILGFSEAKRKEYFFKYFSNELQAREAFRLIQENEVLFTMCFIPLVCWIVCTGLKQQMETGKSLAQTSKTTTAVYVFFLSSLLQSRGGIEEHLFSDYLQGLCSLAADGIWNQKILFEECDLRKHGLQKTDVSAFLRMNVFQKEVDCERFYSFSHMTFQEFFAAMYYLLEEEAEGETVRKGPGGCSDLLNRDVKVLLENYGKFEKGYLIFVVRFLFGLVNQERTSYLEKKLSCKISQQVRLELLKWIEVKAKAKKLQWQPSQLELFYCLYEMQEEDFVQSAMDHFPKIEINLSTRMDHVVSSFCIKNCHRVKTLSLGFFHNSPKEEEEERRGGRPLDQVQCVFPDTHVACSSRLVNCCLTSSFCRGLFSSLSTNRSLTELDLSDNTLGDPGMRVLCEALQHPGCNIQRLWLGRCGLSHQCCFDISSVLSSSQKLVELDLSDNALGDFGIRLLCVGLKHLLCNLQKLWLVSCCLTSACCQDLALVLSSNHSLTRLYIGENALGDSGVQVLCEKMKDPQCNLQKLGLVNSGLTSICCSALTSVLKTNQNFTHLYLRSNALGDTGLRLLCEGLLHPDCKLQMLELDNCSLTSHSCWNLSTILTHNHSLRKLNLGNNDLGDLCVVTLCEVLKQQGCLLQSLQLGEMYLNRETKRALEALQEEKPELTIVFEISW
Chain of NACHT, LRR and PYD domains-containing protein 3 (Q8R4B8 whole entry, the tested form may be a part): as above

SMILES	inhibition [5]	inhibition [6]	other results
CCC(=O)Nc1ccc(-c2ccccc2N(Cc2cc(Cl)ccc2OCCOC)C(=O)c2ccc(F)cc2)cc1			IC50 [1]: 50000 nM; Stability [2]: Stable; IC50 [3]: 340 nM; Stability [4]: Stable
CCCCS(=O)(=O)Nc1ccc(-c2ccccc2N(Cc2cc(Cl)ccc2OCCOC)C(=O)Cc2ccsc2)cc1	51.5%	73.7%	
CCC(=O)Nc1ccc(-c2ccccc2N(Cc2cc(Cl)ccc2OCCOC)C(=O)c2cc(F)c(F)c(F)c2)cc1	52.5%	77.4%	
CCCS(=O)(=O)Nc1ccc(-c2ccccc2N(Cc2cc(Cl)ccc2OCCOC)C(=O)c2ccc(F)cc2)cc1	58.9%	67.6%	
CCCS(=O)(=O)Nc1ccc(-c2ccccc2N(Cc2cc(Cl)ccc2OCCOC)C(=O)Cc2ccsc2)cc1	31.4%	61.1%	
CCC(=O)Nc1ccc(-c2ccccc2N(Cc2ccc(C(F)(F)F)cc2)C(=O)c2ccc(F)cc2)cc1	49.7%	82.1%	
COCCOc1ccc(Cl)cc1CN(C(=O)Cc1ccsc1)c1ccccc1-c1ccc(NC(=O)/C=C/c2ccccc2)cc1	11.9%	36.7%	
CCC(=O)Nc1ccc(-c2ccccc2N(Cc2cc(Cl)ccc2OCCOC)C(=O)Cc2ccc(F)cc2)cc1	76.7%	93.5%	IC50 [3]: 650 nM
CCCC(CCC)C(=O)Nc1ccc(-c2ccccc2N(Cc2cc(Cl)ccc2OCCOC)C(=O)Cc2ccsc2)cc1	28.6%	58.1%	
COCCOc1ccc(Cl)cc1CN(C(=O)Cc1ccsc1)c1ccccc1-c1ccc(NC(=O)OCc2ccccc2)cc1	10.6%	54.4%	
CCS(=O)(=O)Nc1ccc(-c2ccccc2N(Cc2cc(Cl)ccc2OCCOC)C(=O)c2ccc(F)cc2)cc1	55.4%	68.2%	
CC(C)(O)c1coc(S(=O)(=O)NC(=O)Nc2c3c(cc4c2CCC4)CCC3)c1			IC50 [3]: 15 nM
CCC(=O)Nc1ccc(-c2ccccc2N(Cc2cc(Cl)ccc2OCC(C)(F)F)C(=O)Cc2ccsc2)cc1	70.1%	89.9%	IC50 [3]: 550 nM
COCCOc1ccc(Cl)cc1CN(C(=O)Cc1ccsc1)c1ccccc1-c1ccc(NC(=O)Cc2ccccc2)cc1	44.5%	84.3%	
CCC(=O)Nc1ccc(-c2ccccc2N(Cc2ccc(F)cc2)C(=O)c2ccc(F)cc2)cc1	40.5%	39.6%	
CCCCCC(=O)Nc1ccc(-c2ccccc2N(Cc2cc(Cl)ccc2OCCOC)C(=O)c2ccc(F)cc2)cc1	7.12%	45.4%	
CCC(=O)Nc1ccc(-c2ccccc2N(Cc2cc(Cl)ccc2OCCOC)C(=O)c2ccc(F)c(F)c2)cc1	36.1%	27.7%	
CCC(=O)Nc1ccc(-c2ccccc2N(Cc2cc(F)ccc2OCCOC)C(=O)Cc2ccsc2)cc1	42.7%	83.8%	
COCCOc1ccc(Cl)cc1CN(C(=O)Cc1ccsc1)c1ccccc1-c1ccc(NC(=O)C2CCCCC2)cc1	-2.37%	39.5%	
COCCOc1ccc(Cl)cc1CN(C(=O)Cc1ccsc1)c1ccccc1-c1ccc(NC(=O)[C@@H]2CCC(=O)N2)cc1	54.1%	84.5%	IC50 [3]: 860 nM
CCC(=O)Nc1ccc(-c2ccccc2N(Cc2cc(F)ccc2OCC(C)(F)F)C(=O)Cc2ccsc2)cc1	27.8%	74.8%	
CCC(=O)Nc1ccc(-c2ccccc2N(Cc2cc(Cl)ccc2OCCOC)C(=O)c2c(F)c(F)c(F)c(F)c2F)cc1	39.7%	23.6%	

Second part, led by results:

inhibition [5]	inhibition [6]	SMILES	other results
11.1%	85.4%	COCCOc1ccc(Cl)cc1CN(C(=O)Cc1ccsc1)c1ccccc1-c1ccc(NC(=O)C(C)C)cc1	
29.2%	78.4%	CCNC(=S)Nc1ccc(-c2ccccc2N(Cc2cc(Cl)ccc2OCCOC)C(=O)Cc2ccsc2)cc1	
27.5%	42.5%	CCS(=O)(=O)Nc1ccc(-c2ccccc2N(Cc2cc(Cl)ccc2OCCOC)C(=O)Cc2ccsc2)cc1	
53.9%	68.2%	CCCC(=O)Nc1ccc(-c2ccccc2N(Cc2cc(Cl)ccc2OCCOC)C(=O)Cc2ccsc2)cc1	IC50 [3]: 1030 nM
73%	90.5%	COCCOc1ccc(Cl)cc1CN(C(=O)Cc1ccsc1)c1ccccc1-c1ccc(NC(=O)CBr)cc1	Activity (J774.A1): > 97%; IC50 [3]: 310 nM
1.56%	33.9%	COCCOc1ccc(Cl)cc1CN(C(=O)Cc1ccsc1)c1ccccc1-c1ccc(NC(C)=O)cc1	
72.3%	92.5%	CCC(=O)Nc1ccc(-c2ccccc2N(Cc2cc(Cl)ccc2OCCOC)C(=O)Cc2ccsc2)cc1	IC50 [3]: 850 nM
27.8%	63.9%	COCCOc1ccc(Cl)cc1CN(C(=O)Cc1ccsc1)c1ccccc1-c1ccc(NC(=O)C2CC2)cc1	
56.9%	84.4%	CCNC(=O)Nc1ccc(-c2ccccc2N(Cc2cc(Cl)ccc2OCCOC)C(=O)Cc2ccsc2)cc1	
24.5%	72.1%	C=CC(=O)Nc1ccc(-c2ccccc2N(Cc2cc(Cl)ccc2OCCOC)C(=O)Cc2ccsc2)cc1	
-0.88%	49.6%	C#CCCCC(=O)Nc1ccc(-c2ccccc2N(Cc2cc(Cl)ccc2OCCOC)C(=O)Cc2ccsc2)cc1	
67.5%	81.8%	CCCCCC(=O)Nc1ccc(-c2ccccc2N(Cc2cc(Cl)ccc2OCCOC)C(=O)Cc2ccsc2)cc1	IC50 [3]: 590 nM
